In patent US20240197725A1, “METHOD AND COMPOSITION FOR THE PREVENTION OR TREATMENT OF OSTEOARTHRITIS” (Rhode Island Hospital, priority 2021, published 2024):
Read-outs that look alike come from different tables or passages of the source. Values belong to the compound of their own block, whether it stands above or below them.

What was measured:
[1] = target: T1, SHP2 (Homo sapiens, UniProt Q06124); details: read-out: SHP2 IC50; cited from earlier work
[2] = target: T1, SHP2; parameters: host or cells: esophageal cancer cells (endogenous SHP2); details: cited from earlier work
[3] = target: T2, SHP2 (Mus musculus, UniProt P35235); assay: SHP2 degradation in Prg4+ articular cartilage cells (Western blot); format: cell-based, murine; details: chondrocytes, a week after withdrawal
T2 construct: endogenous in cells; host or cells: Prg4+ murine articular cartilage (AC) cells
T2 sequence (P35235 whole entry): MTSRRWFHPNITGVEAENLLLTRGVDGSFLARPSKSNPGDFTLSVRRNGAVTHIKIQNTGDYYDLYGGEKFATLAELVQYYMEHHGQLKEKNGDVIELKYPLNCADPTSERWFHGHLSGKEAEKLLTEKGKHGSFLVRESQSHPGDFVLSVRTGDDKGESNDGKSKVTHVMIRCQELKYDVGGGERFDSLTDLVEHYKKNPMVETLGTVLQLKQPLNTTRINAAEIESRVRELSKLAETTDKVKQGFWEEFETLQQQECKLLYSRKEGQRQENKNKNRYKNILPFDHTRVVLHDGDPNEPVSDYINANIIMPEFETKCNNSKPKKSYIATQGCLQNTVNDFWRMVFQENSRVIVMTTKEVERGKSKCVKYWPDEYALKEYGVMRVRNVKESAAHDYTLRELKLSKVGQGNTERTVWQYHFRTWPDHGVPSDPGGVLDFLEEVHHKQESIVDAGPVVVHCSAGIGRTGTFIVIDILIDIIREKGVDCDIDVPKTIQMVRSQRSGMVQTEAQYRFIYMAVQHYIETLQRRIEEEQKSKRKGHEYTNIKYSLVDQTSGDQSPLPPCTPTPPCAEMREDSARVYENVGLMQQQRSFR

[4] = test system: murine articular cartilage cells; assay: Cell viability (WST1) of articular cartilage cells; format: cell-based; details: concentrations as high as 1 μM, 48 hrs, WST1, n=3
Procedure: With respect to toxicity, murine articular cartilage cells were treated with indicated concentration of SHP2D26 for 48 hrs. Cell viabilities were measured using WST1 (n=3).

SMILES: C[C@@H]1OCC2(CCN(c3nc4[nH]nc(-c5ccnc(NC6CC6)c5Cl)c4c(=O)n3C)CC2)[C@@H]1N [SHP389, 6-((3S,4S)-4-Amino-3-methyl-2-oxa-8-azaspiro[4.5]decan-8-yl)-3-(3-chloro-2-(cyclopropylamino)pyridin-4-yl)-5-methyl-2,5-dihydro-4H-pyrazolo[3,4-d]pyrimidin-4-one]
- IC50 [1]: 36000 nM

- SHP2 recovered after complete withdrawal of compound from culture medium [3]: about 50%
SMILES: Cc1ncsc1-c1ccc([C@H](C)NC(=O)[C@@H]2C[C@@H](O)CN2C(=O)[C@@H](NC(=O)CCCCCCCCN2CCN(C(=O)CCC(=O)Nc3cccc(Sc4ncc(N5CCC(C)(N)CC5)nc4N)c3Cl)CC2)C(C)(C)C)cc1 [SHP-D26, (2S,4R)-1-((S)-2-(9-(4-(4-((3-((3-amino-5-(4-amino-4-methylpiperidin-1-yl)pyrazin-2-yl)thio)-2-chlorophenyl)amino)-4-oxobutanoyl)piperazin-1-yl)nonanamido)-3,3-dimethylbutanoyl)-4-hydroxy-N-((S)-1-(4-(4-methylthiazol-5-yl)phenyl)ethyl)pyrrolidine-2-carboxamide]
- DC50 ([2]; acute myeloid leukemia MV4, 11 cells, read-out: DC50): 2.6 nM
- DC50 ([2]; esophageal cancer KYSE520 cells, read-out: DC50): 6 nM
- DC50 ([2]; range over the cancer cell lines, read-out: SHP2 DC50): 2.6 to 6 nM
- cell viability [4]: did not compromise cell viability

SMILES: O=C1/C(=N\Nc2ccc(S(=O)(=O)O)cc2)C(c2ccc([N+](=O)[O-])cc2)=NN1c1ccc([N+](=O)[O-])cc1 [GS-493, 4-((2 Z)-2-(1,3-bis (4-Nitrophenyl)-5-oxo-1,5-dihydro-4H-pyrazol-4-yliden)hydrazino) benzenesulfonic acid, (Z)-4-(2-(1,3-bis(4-Nitrophenyl)-5-oxo-1H-pyrazol-4(5H)-ylidene)hydrazinyl)benzenesulfonic acid]
- IC50 [1]: 71000 nM

SMILES: O=c1c2ccccc2n2c(-c3ccccc3O)nnc2n1Cc1ccccc1Cl [SHP357]
- IC50 [1]: > 100000 nM
